{"source": "paper PMC5190008", "about": "“BO-1055, a novel DNA cross-linking agent with remarkable low myelotoxicity shows potent activity in sarcoma models” (Oncotarget, 2016)", "key": {"[1]": {"tested_on": "Ewing sarcoma patient samples", "experiment": "Alamar Blue cell proliferation assay", "type": "cell-based, human", "text": "Ewing sarcoma cell line A673, Prostate (PC-3, LNCaP, 22RV/HL2), colon (HCT-116), breast (MCF-7, MX-1), small cell lung cancer (H526) and renal (A-498, 786-0) cancer cell lines were purchased from American Type Culture Collection (ATCC, Manassas, VA). Dr. Marc Ladanyi (Department of Pathology, MSKCC) kindly provided the following cell lines: CHLA-9, TC32, RMS559 and TE-381. Dr. Gary Schwartz kindly provided the following osteosarcoma cell lines: OSA, U20S and SAOS. Dr. Constantine Markides, (CHRISTUS Stehlin Foundation for Cancer Research, TX) kindly provided Ewing sarcoma and desmoplastic small round cell tumor (DSRCT) cell lines, including CAR, ZUC, ORA, BER and BOD. Early cultures derived from Ewing sarcoma patient samples, including IARC-EW1, SIM-1 were obtained from the MSKCC monoclonal antibody core facility. […]\nAlamarBlue® assay (Invitrogen, Carlsbad, CA, USA) was performed to evaluate anti-proliferative activity of the drugs in cell lines and primary cells. […] The absorbance was measured using the Synergy H1 hybrid multi-mode microplate reader (BioTek, USA). The drug effect was quantified as the percentage of control absorbance at 540 nm and 585 nm. Optical density was determined for 3 replicates per treatment condition and cell proliferation in drug-treated cells was normalized to their respective controls. […]"}, "[2]": {"tested_on": "human CD34+ hematopoietic stem cells isolated from cord blood", "experiment": "Colony forming unit (CFU) assay", "type": "cell-based", "details": "concentration < 5μM", "procedure": "We performed the colony forming unit (CFU) assays using human CD34+ hematopoietic stem cells isolated from cord blood to elucidate hematologic toxicity. We noted no effect on BFU-E, GM and mixed colonies at a concentration < 5μM of BO-1055 on CFU assay (Figure 2C).\nColony assays were performed in triplicate in 24 well plates using 1.2% methylcellulose (Dow Chemical, Waterloo, NY), 30% FCS, 57.2 μM β-mercaptoethanol, 2 mM glutamine, 0.5 mM hemin (Sigma, USA), 20 ng/mL interleukin 3 (IL-3), granulocyte colony stimulating factor (G-CSF), c-KIT ligand (KL) and 6 U/mL erythropoietin (Epo). IL-3 and KL and Epo were obtained from R and D Systems (Minneapolis, USA) and G-CSF was from Amgen (Thousand Oaks, CA). Colonies were scored 14 days after plating as per the protocol described earlier."}, "A204 cells": {"tested_on": "A204 cells", "experiment": "Cell cycle analysis (propidium iodide)", "type": "cell-based, human", "details": "A204, prominent at 12-24h of exposure", "procedure": "(§1) Cell viability and apoptosis were determined using 7-AAD (BD Pharmingen, San Diego, CA) and Annexin V-APC (BD Pharmingen, San Diego, CA) staining according to the instructions provided by the manufacturer and as previously published. Cell cycle fractions were determined by propidium iodide nuclear staining. Briefly, cells were harvested, washed in PBS, fixed with 70% ethanol, and incubated with propidium iodide/RNase buffer (BD Biosciences, San Diego, CA) for 15 minutes at room temperature. Data was collected on BD LSR Fortessa fluorescence-activated cell analyzer using BD FACS Diva software and analyzed using FlowJo version 9.6 software (Tree Star, Inc. Ashland, OR). Cell cycle analysis was done by applying the Dean/Jett/Fox cell cycle model using FlowJo software."}, "A673 cells": {"tested_on": "A673 cells", "experiment": "Cell cycle analysis (propidium iodide)", "type": "cell-based, human", "details": "A673, prominent at 12-24h of exposure", "procedure": "as §1"}}, "data": [{"smiles": "CN(C)CCNC(=O)c1cccc(NC(=O)Nc2ccc(N(CCCl)CCCl)cc2)c1", "note": "[BO-1055]", "values": [{"measurement": "IC50", "setting": "[1]", "result": "submicromolar"}, {"measurement": "effect on BFU-E, GM and mixed colonies", "setting": "[2]", "result": "no effect"}, {"measurement": "cell cycle effect", "setting": "A204 cells", "result": "concentration-dependent accumulation of cells in the G2/M phase"}, {"measurement": "cell cycle effect", "setting": "A673 cells", "result": "concentration-dependent accumulation of cells in the G2/M phase"}]}]}
